The subject of one experiment is PANC-1 cells. The experiment can be described thus: Anti-cancer assay (Panc-1), cell viability CellTiterGlo. It counts as cell-based. As to conditions: Homo sapiens, PANC-1, 168 h, 7 days, activity range, lower bound in pM, upper bound in nM. On the procedure: Anticancer Activity Assay
Z-138 cells were seeded at a density of 2000-3000 cells per well in culture media (IMDM+10% FBS). PANC-1 (ATCC, CRL-1469™) and MIA PaCa-2 (ATCC, CRL-1420™) cells were seeded at a density of 200-300 cells per well in culture media (DMEM+10% FBS). Cells were seeded in opaque, flat bottomed tissue culture grade 96-well plates and Z-138 cells (suspension) were seeded and treated on the same day with various concentrations of test compounds. PANC-1 and MIA PaCa-2 cells, being adherent, were kept for overnight settlement at standard cell culture conditions (37° C., 5% CO2). On the following day, cells were treated with various concentrations of test compounds. Cells were treated with test compounds for a period of 96 h, 7 days and 10 days, for Z-138 cells, PANC-1 cells and MIA PaCa-2 cells, respectively. Cell viability was assessed using CellTiterGlo™ (Promega, USA) as per manufacturer's instructions. Relative Light Units (RLU) were read in Synergy™ 2 reader (Biotek, USA). The assay measures cellular ATP as an indicator of cell viability. RLU is proportional to the number of viable cells in the respective well.
% inhibition of cell viability was calculated relative to the vehicle control samples containing media with 0.1% DMSO alone as per the formula below. (Avg. of Untreated Control−Avg. of Test)×100 Avg. of Untreated Control
The IC50 values of individual compounds were calculated with Non Linear Regression Analysis using Graph Pad Prism (Graph Pad software, Inc, USA).
Anti-Cancer Assay (Panc-1)

The next experiment addresses PRMT5:MEP50 (Homo sapiens, UniProt O14744). The experiment is described as follows: PRMT5 biochemical HTRF assay (Biochemical Assay Protocol 1 / 2). As to conditions: biotinylated H4R3 substrate, 1 μM SAM, protocol 1 or 2 not given, activity range 300 pM to 950 pM, read-out: IC50 (PRMT5 inhibition), activity range. On the procedure:
Biochemical Assay Protocol 1
(§1) Inhibitory effect of compounds on PRMT5 was assessed using HTRF detection technology in biochemical assay. Biotinylated H4R3 (residues 1-21) was used as a substrate. Compounds were pre-incubated with 15-25 ng PRMT5:MEP50 per well of a 384-well plate for 30 min at room temperature in the assay buffer containing 20 mM Bicine, pH 7.6, 25 mM NaCl, 2 mM DTT, 0.01% Chicken albumin and 0.01% Tween-20. Reaction was initiated by adding 1 μM of SAM and 50 nM biotinylated H4R3. Total assay volume was 15 μL. Reaction was continued for 120 min at room temperature. Then detection solution containing Streptavidin-Eu cryptate, anti-rabbit IgG-XL-665, Histone H4R3 Dimethyl Symmetric (H4R3me2s) Polyclonal Antibody, all prepared in HTRF detection buffer was added and further incubated for 30 min at room temperature. HTRF signal was recorded in PHERAStar microplate reader. Ratio of signal obtained at 665 nm and 620 nm was used to compute the percent inhibition of compound as follows % Inhibition=100−((Test Ratio−Negative control Ratio)/(Positive control Ratio−Negative control Ratio)*100) where Positive control=PRMT5+SAM+H4R3 Negative control=PRMT5+H4R3 Biochemical Assay Protocol 2
as §1, with “2.5” for “15-25”, “4 h” for “120 min”, “control=PRMT5+H4R3” for “control=PRMT5+H4R3 Biochemical Assay Protocol 2”
In general terms: TR-FRET usually uses a lanthanide donor and a delayed reading to cut background.

In a further experiment the test system is Z-138 xenograft. The experiment is described as follows: In vivo efficacy, Z-138 xenograft mouse model. Also on record: species or system female NOD.CB17-Prkdc<scid>/J mice. As to conditions: mice, oral twice a day; for % of tumor growth inhibition: 1 mg/kg dose, after 38 days. On the procedure:
In Vivo Efficacy Experiments Tumor xenograft for mantle cell lymphoma was established by injection of cells into the right flank of female NOD.CB17-Prkdc/J mice with an age between 7-11 weeks purchased from The Jackson Laboratory, USA. All animal study proposals were reviewed and approved by the Institutional Animal Ethics Committee (IAEC) prior to initiation of experimentation. Z-138 Xenograft For Z-138 xenograft mouse model, Z-138 cells (ATCC® CRL-3001™) were grown in IMDM medium supplemented with 10% FBS. Cells were incubated under standard conditions at 37° C. and 5% CO2. For generating tumors, Z-138 cells in IMDM medium were mixed with Matrigel (Corning® Matrigel® Basement Membrane Matrix) in a ratio of 1:1. 10×10^6 cells) in a volume of 200 μL were injected subcutaneously in each mouse to establish tumors. Mice were randomized into treatment groups of 8-10 mice, once tumors reached an average volume between 100 to 120 mm^3. Treatment was initiated on day of randomization and continued until end of the study. The Vehicle and test compound treatment groups were administered respective treatments orally, using gavage tubing, at an application volume of 10 mL/kg per mouse twice a day. Mice were housed in individually ventilated cages (IVC) at room temperature of 22+3° C., humidity 50+20% and 12/12 h light/dark cycle. All the experimental activities were carried-out inside the biosafety cabinets to ensure sterility.
Tumor size was measured with Digimatic Vernier caliper (Mitutoyo, Japan) when the tumors became palpable. Tumor volume (T. V.) is calculated by using the formula: Tumor volume (mm3)=(L×W2)/2 Where, L: Length of tumor, W: Width of tumor in millimeter Percent tumor growth inhibition (% TGI) is calculated using the formula: % TGI=[1−(Tf−Ti)/(Cf−Ci)]×100 Where, Tf and Ti, are the final and initial tumor volumes (test compound), and Cf and Ci are the final and initial mean tumor volumes (vehicle group), respectively. Percent tumor regression is calculated as: % TR:(Ti−Tf)/(Ti)×100 Where, Tf and Ti, are the final and initial tumor volumes, respectively.

The results in this text go back to US11459330B2, “Substituted bicyclic heterocyclic compounds as PRMT5 inhibitors” (LUPIN LIMITED, priority 2017, dated 2022).

Chain of PRMT5:MEP50 (O14744 whole entry): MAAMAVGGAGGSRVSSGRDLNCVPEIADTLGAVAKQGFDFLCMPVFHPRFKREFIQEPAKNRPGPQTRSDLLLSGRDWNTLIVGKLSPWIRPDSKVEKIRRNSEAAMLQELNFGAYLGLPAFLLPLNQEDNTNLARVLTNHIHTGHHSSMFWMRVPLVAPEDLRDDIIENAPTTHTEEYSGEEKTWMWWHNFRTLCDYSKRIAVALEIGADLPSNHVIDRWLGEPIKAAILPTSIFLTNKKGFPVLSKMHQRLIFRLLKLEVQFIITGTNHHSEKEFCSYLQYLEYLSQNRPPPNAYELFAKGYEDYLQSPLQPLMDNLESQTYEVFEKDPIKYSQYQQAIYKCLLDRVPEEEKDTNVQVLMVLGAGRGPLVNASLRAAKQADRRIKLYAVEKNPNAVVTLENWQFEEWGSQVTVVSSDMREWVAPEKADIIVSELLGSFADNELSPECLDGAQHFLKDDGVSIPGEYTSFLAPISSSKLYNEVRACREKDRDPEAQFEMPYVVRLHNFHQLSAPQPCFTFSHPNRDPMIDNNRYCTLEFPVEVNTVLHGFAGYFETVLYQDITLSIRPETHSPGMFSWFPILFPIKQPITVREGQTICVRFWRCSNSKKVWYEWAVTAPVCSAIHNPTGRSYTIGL
Chain of PRMT5:MEP50 (Q9BQA1 whole entry partner): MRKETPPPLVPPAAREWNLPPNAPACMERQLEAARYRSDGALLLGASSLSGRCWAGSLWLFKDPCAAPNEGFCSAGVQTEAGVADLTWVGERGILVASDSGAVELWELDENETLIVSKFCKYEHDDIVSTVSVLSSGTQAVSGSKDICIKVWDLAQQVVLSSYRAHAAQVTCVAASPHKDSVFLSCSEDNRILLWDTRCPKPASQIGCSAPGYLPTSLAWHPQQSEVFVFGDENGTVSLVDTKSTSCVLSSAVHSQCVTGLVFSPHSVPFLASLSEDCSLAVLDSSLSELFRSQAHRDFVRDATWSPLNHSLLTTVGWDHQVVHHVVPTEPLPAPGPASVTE

On to `CC(Cc1cc(F)c2cc(Cl)c(N)nc2c1)C1=C[C@@H](n2ccc3c(N)ncnc32)[C@H](O)[C@@H]1O` (single isomer, unassigned) [Compound-33b], for which the figures for the IC50 in the experiment with PANC-1 cells and on PRMT5:MEP50 were 300 to 20000 pM and 0.3 to 0.95 nM, respectively. Moreover, in the experiment with Z-138 xenograft, the “% of tumor growth inhibition” value was 100%.
For `Cc1ncnc2c1ccn2[C@@H]1C=C(CCc2cc(F)c3cc(Cl)c(N)nc3c2)[C@@H](O)[C@H]1O` [Compound-13, (1S,2R,5R)-3-(2-(2-amino-3-chloro-5-fluoroquinolin-7-yl)ethyl)-5-(4-methyl-7H-pyrrolo[2,3-d]pyrimidin-7-yl)cyclopent-3-ene-1,2-diol], in that order: 300 to 20000 pM, 0.3 to 0.95 nM and 100%.
For `Nc1nc2cc(CCC3=C[C@@H](n4ccc5c(N)ncnc54)[C@H](O)[C@@H]3O)cc(F)c2cc1Cl` [Compound-24, (1S,2R,5R)-3-(2-(2-amino-3-chloro-5-fluoroquinolin-7-yl)ethyl)-5-(4-amino-7H-pyrrolo[2,3-d]pyrimidin-7-yl)cyclopent-3-ene-1,2-diol], in that order: 300 to 20000 pM, 0.3 to 0.95 nM and 100%.
On to `Nc1nc2cc(CC[C@@]34C[C@@H]3[C@@H](n3ccc5c(N)ncnc53)[C@H](O)[C@@H]4O)cc(F)c2cc1Cl` [Compound-48, (1R,2R,3S,4R,5S)-1-(2-(2-Amino-3-chloro-5-fluoroquinolin-7-yl)ethyl)-4-(4-amino-7H-pyrrolo[2,3-d]pyrimidin-7-yl)bicyclo[3.1.0]hexane-2,3-diol], for which the results for the IC50 in the experiment on PANC-1 cells and on PRMT5:MEP50 were 300 to 20000 pM and 0.3 to 0.95 nM, respectively. For the same compound, the tumor growth inhibition in the experiment on Z-138 xenograft (5 mg/kg dose) is 100%. In the experiment with Z-138 xenograft (5 mg/kg dose), this compound registered a tumor regression of 63%.
